The source of these data is patent US7223767B2, “Tetrahydroquinazolines and dihydrocyclopentapyrimidines as CRF antagonists” (Roche Palo Alto LLC, priority 2003, dated 2007).

Structures are written as SMILES. Structures can show the parent of a compound that is named as a salt.

One data set addresses T1, CRF1 receptor (Homo sapiens, UniProt P34998).
T1 construct: Cell membranes are prepared according the method of Dieterich and DeSouza (1996); endogenous in cells; host or cells: IMR-32 human neuroblastoma cells (membranes)
T1 sequence (P34998 24-415): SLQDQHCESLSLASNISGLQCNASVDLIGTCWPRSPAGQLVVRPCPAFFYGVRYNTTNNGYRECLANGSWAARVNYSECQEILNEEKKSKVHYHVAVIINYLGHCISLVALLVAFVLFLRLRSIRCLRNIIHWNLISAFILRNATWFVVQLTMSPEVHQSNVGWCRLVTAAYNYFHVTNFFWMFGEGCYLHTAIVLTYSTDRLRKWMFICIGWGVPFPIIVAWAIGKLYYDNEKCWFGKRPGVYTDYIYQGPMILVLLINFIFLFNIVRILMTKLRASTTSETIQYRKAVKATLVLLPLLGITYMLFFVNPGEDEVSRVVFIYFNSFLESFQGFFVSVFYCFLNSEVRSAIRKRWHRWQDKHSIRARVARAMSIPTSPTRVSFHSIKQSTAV
Description: CRF1 Receptor Binding Assay (competition binding, IMR-32 cell membranes). The following applies: CRF1 affinity; [125I]Tyr0-ovine CRF, human IMR-32 neuroblastoma cell membranes. As to the method: Human IMR-32 neuroblastoma cells are grown to 80% confluence in MEM medium containing 10% heat-inactivated FBS, 1 mM Sodium Pyruvate, and 0.1 mM nonessential amino acids. Cell membranes are prepared according the method of Dieterich and DeSouza (1996). The cells (˜5E+9) are resuspended in 10 volumes of wash buffer (5 mM Tris HCl, 10 mM MgCl2, 2 mM EGTA, pH 7.4 at RT), homogenized with a Polytron, and then centrifuged at 45,000 G for 20 min at 4° C. The membrane pellets are washed twice with wash buffer (45,000 G for 20 min at 4° C.) and then resuspended (50 mM Tris HCl, 10 mM MgCl2, 2 mM EGTA, pH 7.4 at RT). Protein concentration is determined using Pierce reagents and BSA as standard. Aliquots of 1-1.5 mL are stored at −80° C. until binding assay.
The competition binding assay is performed in a final volume of 250 μl which contains assay buffer (50 mM Tris-HCl, 10 MM MgCl2, 2 mM EGTA, 0.2% BSA, 0.1 mM bacitracin and 100 kIU/mL aprotinin pH 7.2 at R.T.), 0.05 nM [^125I]Tyr^0-ovine CRF (Du Pont New England Nuclear), 50 μg of membrane protein, and test compound at various concentrations. Non-specific binding is determined with 1 μM hCRF. Binding reactions are terminated after 2 hr incubation at 25° C. by filtering through 96-w GF/C filter plate using a Packard Harvester (Filtermate 196). The 96-w filter plate is pre-treated with 0.3% polyethyleneimine and pre-washed with washing buffer (50 mM Tris-HCl, 10 mM MgCl2, 2 mM EGTA, 0.2% BSA, pH 7.2 at 4° C.). Unbound radioactivity is removed by four rapid washes (0.8 ml/well) with wash buffer. The radioactivity is quantified using a Packard TopCount. Data are analyzed using non-linear iterative curve fitting to obtain IC50 and Hill slope values. PKi values are derived from pIC50 values (−log of IC50).

A word on the melting point: it is the temperature, or range, at which the solid turns liquid. In turn, `CCCC1(CCC)CCCc2c(Nc3ccc(Cl)cc3Cl)nc(C)nc21` (as salt: hydrochloride) [Compound 11, (2,4-Dichloro-phenyl)-(2-methyl-8,8-dipropyl-5,6,7,8-tetra-hydro-quinazolin-4-yl)-amine] gave a melting point of 238.3 to 243.9 °C.
For orientation: IC50 means the concentration at which inhibition is half-maximal. In turn, `CCCN(CC1CC1)c1nc(C)nc2c1CCCC2c1ccccc1` (stereo not drawn) [Compound 1, Cyclopropylmethyl-(2-methyl-8-phenyl-5,6,7,8-tetra-hydro-quinazolin-4-yl)-propyl-amine] gave an IC50 at CRF1 receptor of 2820 nM.
On the same count and under the same terms, with `CCCN(CC1CC1)c1nc(C)nc2c1CCC[C@@]2(C)c1ccccc1` [Compound 2, Cyclopropylmethyl-((S)-2,8-dimethyl-8-phenyl-5,6,7,8-tetra-hydro-quinazolin-4-yl)-propyl-amine] the figure was 525 nM.
`CCCN(CC1CC1)c1nc(C)nc2c1CCCC2c1ccc(Cl)cc1` (stereo not drawn) [Compound 3, [8-(4-Chloro-phenyl)-2-methyl-5,6,7,8-tetrahydro-quina-zolin-4-yl]-cyclopropylmethyl-propyl-amine] gave a 50% inhibitory concentration (IC50) at CRF1 receptor of 2340 nM.
Compound `CCCN(CC1CC1)c1nc(C)nc2c1CCCC2(C)c1ccc(Cl)cc1` (stereo not drawn) [Compound 4, [8-(4-chloro-phenyl)-2,8-dimethyl-5,6,7,8-tetra-hydro-quinazolin-4-yl]-cyclopropylmethyl-pro-pyl-amine] showed an IC50 at CRF1 receptor of 1740 nM.
On to `COCCN(CCOC)c1nc(C)nc2c1CCCC2c1ccc(Cl)cc1` (stereo not drawn) [Compound 5, [8-(4-Chloro-phenyl)-2-methyl-5,6,7,8-tetrahydro-quina-zolin-4-yl]-bis-(2-methoxy-ethyl)-amine], for which the concentration for half-maximal inhibition (IC50) at CRF1 receptor is 28800 nM.
In turn, `COCCN(CCOC)c1nc(C)nc2c1CCCC2(C)c1ccc(Cl)cc1` (stereo not drawn) [Compound 6, [8-(4-Chloro-phenyl)-2,8-dimethyl-5,6,7,8-tetra-hydro-quinazolin-4-yl]-bis-(2-methoxy-ethyl)-a-mine] had an IC50 at CRF1 receptor of 11700 nM.
At CRF1 receptor, `CCCN(CC1CC1)c1nc(C)nc2c1CCC2c1ccc(C)cc1C` (stereo not drawn) [Compound 9, Cyclopropylmethyl-[7-(2,4-dimethyl-phenyl)-2-meth-yl-6,7-dihydro-5H-cyclopentapyrimidin-4-yl]-pro-pyl-amine] had an IC50 of 1120 nM.
As to `CCCN(CC1CC1)c1nc(C)nc2c1CCC2(C)c1ccc(C)cc1C` (stereo not drawn) [Compound 10, Cyclopropylmethyl-[7-(2,4-dimethyl-phenyl)-2,7-di-methyl-6,7-dihydro-5H-cyclopentapyrimidin-4-yl]-pro-pyl-amine], the IC50 at CRF1 receptor was 661 nM.
